In ChEMBL document CHEMBL4321821, “Opioids as Substrates and Inhibitors of the Genetically Highly Variable Organic Cation Transporter OCT1” (J Med Chem, 2019):

T1: OCT1 (SLC22A1) (Homo sapiens, UniProt O15245)
T1 sequence (O15245 whole entry): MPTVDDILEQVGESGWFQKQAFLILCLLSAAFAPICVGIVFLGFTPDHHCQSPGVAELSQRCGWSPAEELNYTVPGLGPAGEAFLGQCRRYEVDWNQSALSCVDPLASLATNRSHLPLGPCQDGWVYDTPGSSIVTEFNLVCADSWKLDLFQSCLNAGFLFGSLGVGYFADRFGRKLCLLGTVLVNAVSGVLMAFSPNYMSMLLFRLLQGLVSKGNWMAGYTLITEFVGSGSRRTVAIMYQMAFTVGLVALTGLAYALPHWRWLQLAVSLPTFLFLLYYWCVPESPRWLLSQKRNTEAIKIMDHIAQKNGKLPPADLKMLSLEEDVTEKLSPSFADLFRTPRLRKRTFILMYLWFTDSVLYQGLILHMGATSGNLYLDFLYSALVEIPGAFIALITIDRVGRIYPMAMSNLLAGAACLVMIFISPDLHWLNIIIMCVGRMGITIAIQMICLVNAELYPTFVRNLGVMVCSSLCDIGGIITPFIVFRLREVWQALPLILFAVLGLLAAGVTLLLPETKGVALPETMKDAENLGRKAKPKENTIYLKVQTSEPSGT

T2: Solute carrier family 22 member 1 (Homo sapiens, UniProt O15245)
T2 sequence (O15245 whole entry): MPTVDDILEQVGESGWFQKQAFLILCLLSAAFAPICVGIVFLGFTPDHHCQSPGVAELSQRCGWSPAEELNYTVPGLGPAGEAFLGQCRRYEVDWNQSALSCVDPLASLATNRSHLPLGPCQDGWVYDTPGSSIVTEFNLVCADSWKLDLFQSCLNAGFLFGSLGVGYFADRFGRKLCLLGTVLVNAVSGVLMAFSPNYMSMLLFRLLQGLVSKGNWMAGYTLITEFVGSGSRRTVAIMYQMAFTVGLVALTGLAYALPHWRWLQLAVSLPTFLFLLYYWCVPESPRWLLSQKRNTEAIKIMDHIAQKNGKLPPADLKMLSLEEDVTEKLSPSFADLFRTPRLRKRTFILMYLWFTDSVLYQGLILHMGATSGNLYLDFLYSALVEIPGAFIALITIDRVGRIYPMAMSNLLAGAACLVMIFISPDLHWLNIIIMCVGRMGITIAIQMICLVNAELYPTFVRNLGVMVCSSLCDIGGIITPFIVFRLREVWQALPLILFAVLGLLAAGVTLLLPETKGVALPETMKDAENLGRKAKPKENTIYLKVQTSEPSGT


Assays:
OCT1 (SLC22A1) [1] = target: T1, OCT1 (SLC22A1); assay: Substrate activity at human OCT1 expressed in HEK293 cells assessed as increase in compound uptake at 0.5 uM incubated for 2 mins by LC-MS/MS analysis relative to control empty vector transfected cells; assay type: cell-based; conditions: HEK293 cells that express human OCT1, read-out: FC
OCT1 (SLC22A1) [2] = target: T1, OCT1 (SLC22A1); assay: Substrate activity at human OCT1 expressed in HEK293 cells assessed as increase in compound uptake at 0.05 uM incubated for 2 mins by LC-MS/MS analysis relative to control empty vector transfected cells; assay type: cell-based; conditions: HEK293 cells that express human OCT1, read-out: FC
in vitro = conditions: PAMPA
Description: Passive membrane permeability by LC-MS/MS analysis based PAMPA

OCT1 (SLC22A1) [3] = target: T1, OCT1 (SLC22A1); assay: Substrate activity at human OCT1 expressed in HEK293 cells assessed as increase in compound uptake at 0.1 uM incubated for 2 mins by LC-MS/MS analysis relative to control empty vector transfected cells; assay type: cell-based; conditions: HEK293 cells that express human OCT1, read-out: FC
[4] = target: T2, Solute carrier family 22 member 1; assay: Inhibition of human OCT1 expressed in HEK293 cells assessed as reduction in ASP+ substrate uptake by microplate reader based analysis; assay type: cell-based
[5] = Unbound Cmax in human at 60 mg, po; assay type: ADME; conditions: in vivo
[6] = Unbound maximal portal vein concentration of in human at 60 mg, po; assay type: ADME, tissue-based; conditions: in vivo
[7] = Cmax in human at 60 mg, po; assay type: ADME; design: dose 60 mg, route oral; conditions: in vivo
[8] = Ratio of unbound maximal portal vein concentration in human at 60 mg, po to inhibition of human OCT1 expressed in HEK293 cells assessed as reduction in ASP+ substrate uptake by microplate reader based analysis; assay type: ADME, organism-based; conditions: in vivo
[9] = Ratio of unbound Cmax in human at 60 mg, po to inhibition of human OCT1 expressed in HEK293 cells assessed as reduction in ASP+ substrate uptake by microplate reader based analysis; assay type: ADME, organism-based; conditions: in vivo
[10] = Unbound maximal portal vein concentration of in human at 34 mg, iv; assay type: ADME, tissue-based; conditions: in vivo
[11] = Ratio of unbound maximal portal vein concentration in human at 86 mg, po dosed as prolonged release formulation to inhibition of human OCT1 expressed in HEK293 cells assessed as reduction in ASP+ substrate uptake by microplate reader based analysis; assay type: ADME, organism-based; conditions: in vivo
[12] = Cmax in human at 86 mg, po dosed as prolonged release formulation; assay type: ADME, organism-based; design: dose 86 mg, route oral; conditions: in vivo
[13] = Ratio of unbound maximal portal vein concentration in human at 34 mg, iv to inhibition of human OCT1 expressed in HEK293 cells assessed as reduction in ASP+ substrate uptake by microplate reader based analysis; assay type: ADME, organism-based; conditions: in vivo
[14] = Unbound Cmax in human at 34 mg, iv; assay type: ADME; conditions: in vivo
[15] = Unbound maximal portal vein concentration of in human at 86 mg, po dosed as prolonged release formulation; assay type: ADME, organism-based; conditions: in vivo
[16] = Ratio of unbound Cmax in human at 80 mg, po dosed as immediate release formulation to inhibition of human OCT1 expressed in HEK293 cells assessed as reduction in ASP+ substrate uptake by microplate reader based analysis; assay type: ADME, organism-based; conditions: in vivo
[17] = Unbound Cmax in human at 86 mg, po dosed as prolonged release formulation; assay type: ADME, organism-based; conditions: in vivo
[18] = Ratio of unbound Cmax in human at 86 mg, po dosed as prolonged release formulation to inhibition of human OCT1 expressed in HEK293 cells assessed as reduction in ASP+ substrate uptake by microplate reader based analysis; assay type: ADME, organism-based; conditions: in vivo
[19] = Ratio of unbound Cmax in human at 34 mg, iv to inhibition of human OCT1 expressed in HEK293 cells assessed as reduction in ASP+ substrate uptake by microplate reader based analysis; assay type: ADME, organism-based; conditions: in vivo
[20] = Unbound Cmax in human at 80 mg, po dosed as immediate release formulation; assay type: ADME, organism-based; conditions: in vivo
[21] = Cmax in human at 34 mg, iv; assay type: ADME; design: dose 34 mg, route intravenous; conditions: in vivo
[22] = Cmax in human at 80 mg, po dosed as immediate release formulation; assay type: ADME, organism-based; design: dose 80 mg, route oral; conditions: in vivo
[23] = Unbound maximal portal vein concentration of in human at 80 mg, po dosed as immediate release formulation; assay type: ADME, organism-based; conditions: in vivo
[24] = Ratio of unbound maximal portal vein concentration in human at 80 mg, po dosed as immediate release formulation to inhibition of human OCT1 expressed in HEK293 cells assessed as reduction in ASP+ substrate uptake by microplate reader based analysis; assay type: ADME, organism-based; conditions: in vivo
[25] = substrate: CNS(=O)(=O)Cc1ccc2[nH]cc(CCN(C)C)c2c1; assay: Substrate activity at human OCT1 expressed in HEK293 cells assessed as increase in compound uptake by measuring Km incubated for 2 mins by LC-MS/MS analysis based Michaelis-Menten plot analysis relative to control empty vector transfected cells; assay type: cell-based
[26] = substrate: C[N+]1(CC2CC2)CC[C@]23c4c5ccc(O)c4O[C@H]2C(=O)CC[C@@]3(O)[C@H]1C5; assay: Substrate activity at human OCT3 expressed in HEK293 cells assessed as increase in compound uptake by measuring Km incubated for 2 mins by LC-MS/MS analysis based Michaelis-Menten plot analysis relative to control empty vector transfected cells; assay type: cell-based

Molecule	uptake ratio at 2 min, 0.5 µM (OCT1 (SLC22A1) [1])	uptake ratio at 2 min, 0.05 µM (OCT1 (SLC22A1) [2])	Papp (in vitro) [×10⁻⁶ cm/s]	uptake ratio at 2 min, 0.1 µM (OCT1 (SLC22A1) [3])	IC50 [4] [µM]	also measured
Oc1ccc2c(c1)[C@@]13CCCC[C@H]1[C@@H](C2)NCC3 [NORLEVORPHANOL]	17.4	14	0.7	14.9	24.9 to 25	–
COc1ccc2c(c1)[C@@]13CCCC[C@H]1[C@@H](C2)NCC3	2	2.5	17.2	2.2	10 to 10.3	–
O=C1CC[C@@]2(O)[C@H]3Cc4ccc(O)c5c4[C@@]2(CCN3CC2CC2)[C@H]1O5 [NALTREXONE]	1	0.8	15.1	0.8	158	–
CNC[C@H]1CCCC[C@]1(O)c1cccc(OC)c1	–	–	13.4	–	55.7	–
COc1ccc2c3c1O[C@H]1[C@@H](O)C=C[C@H]4[C@@H](C2)N(C)CC[C@@]341 [CODEINE]	0.8	0.7	8	1	236	–
COc1ccc2c(c1)[C@]13CCCC[C@@H]1[C@H](C2)N(C)CC3 [DEXTROMETHORPHAN]	0.8	1.1	63.7	1.3	15 to 15.1	fCmax [5]: 0.007 µM; fCmax [6]: 4.57 µM; Cmax [7]: 20 nM; Ratio [8]: 0.302; Ratio [9]: 0.0004
COc1cccc([C@@]2(O)CCCC[C@@H]2CN(C)C)c1 [(R,R)-TRAMADOL]	–	–	26.9	–	88.8	–
CCOC(=O)C1(c2ccccc2)CCN(C)CC1 [MEPERIDINE]	1.2	1.1	40.2	1.2	22.3	–
CC[C@@H](c1cccc(O)c1)[C@@H](C)CN(C)C [TAPENTADOL]	1.5	0.9	13.6	1.6	21.9	fCmax [10]: 8.13 µM; Ratio [11]: 0.842; Cmax [12]: 100 nM; Ratio [13]: 0.371; fCmax [14]: 0.88 µM; fCmax [15]: 18.43 µM; Ratio [16]: 0.011; fCmax [17]: 0.08 µM; Ratio [18]: 0.004; Ratio [19]: 0.04; fCmax [20]: 0.23 µM; Cmax [21]: 1100 nM; Cmax [22]: 290 nM; fCmax [23]: 18.58 µM; Ratio [24]: 0.849
CN1CC[C@]23CCCC[C@H]2[C@H]1Cc1ccc(O)cc13 [LEVORPHANOL]	1.3	1.5	9.2	1.7	8 to 8.48	–
CN1CC[C@@]23CCCC[C@@H]2[C@@H]1Cc1ccc(O)cc13 [DEXTRORPHAN]	1.5	2.1	5.4	1.9	6 to 6.4	–
CN1CC[C@]23c4c5ccc(O)c4O[C@H]2C(=O)CC[C@@]3(O)[C@H]1C5 [OXYMORPHONE]	0.9	2.4	3.2	1.3	250	–
COc1ccc2c3c1O[C@H]1C(=O)CC[C@@]4(O)[C@@H](C2)NCC[C@]314	3.6	4	0.9	3.9	200	–
COc1ccc2c3c1O[C@H]1C(=O)CC[C@H]4[C@@H](C2)N(C)CC[C@]314 [HYDROCODONE]	1.2	0.9	9.1	1.6	537	–
CCC1(c2cccc(O)c2)CCCCN(C)C1 (configuration not stated) [MEPTAZINOL]	3.2	0.8	14.3	2.2	19	–
Solute carrier family 22 member 1 (Homo sapiens) (protein) MPTVDDILEQVGESGWFQKQAFLILCLLSAAFAPICVGIVFLGFTPDHHCQSPGVAELSQRCGWSPAEELNYTVPGLGPAGEAFLGQCRRYEVDWNQSALSCVDPLASLATNRSHLPLGPCQDGWVYDTPGSSIVTEFNLVCADSWKLDLFQSCLNAGFLFGSLGVGYFADRFGRKLCLLGTVLVNAVSGVLMAFSPNYMSMLLFRLLQGLVSKGNWMAGYTLITEFVGSGSRRTVAIMYQMAFTVGLVALTGLAYALPHWRWLQLAVSLPTFLFLLYYWCVPESPRWLLSQKRNTEAIKIMDHIAQKNGKLPPADLKMLSLEEDVTEKLSPSFADLFRTPRLRKRTFILMYLWFTDSVLYQGLILHMGATSGNLYLDFLYSALVEIPGAFIALITIDRVGRIYPMAMSNLLAGAACLVMIFISPDLHWLNIIIMCVGRMGITIAIQMICLVNAELYPTFVRNLGVMVCSSLCDIGGIITPFIVFRLREVWQALPLILFAVLGLLAAGVTLLLPETKGVALPETMKDAENLGRKAKPKENTIYLKVQTSEPSGT	–	–	–	–	–	Km [25]: 55 µM
Solute carrier family 22 member 3 (Homo sapiens) (protein) MPSFDEALQRVGEFGRFQRRVFLLLCLTGVTFAFLFVGVVFLGTQPDHYWCRGPSAAALAERCGWSPEEEWNRTAPASRGPEPPERRGRCQRYLLEAANDSASATSALSCADPLAAFPNRSAPLVPCRGGWRYAQAHSTIVSEFDLVCVNAWMLDLTQAILNLGFLTGAFTLGYAADRYGRIVIYLLSCLGVGVTGVVVAFAPNFPVFVIFRFLQGVFGKGTWMTCYVIVTEIVGSKQRRIVGIVIQMFFTLGIIILPGIAYFIPNWQGIQLAITLPSFLFLLYYWVVPESPRWLITRKKGDKALQILRRIAKCNGKYLSSNYSEITVTDEEVSNPSFLDLVRTPQMRKCTLILMFAWFTSAVVYQGLVMRLGIIGGNLYIDFFISGVVELPGALLILLTIERLGRRLPFAASNIVAGVACLVTAFLPEGIAWLRTTVATLGRLGITMAFEIVYLVNSELYPTTLRNFGVSLCSGLCDFGGIIAPFLLFRLAAVWLELPLIIFGILASICGGLVMLLPETKGIALPETVDDVEKLGSPHSCKCGRNKKTPVSRSHL	–	–	–	–	–	Km [26]: 22.5 µM; Vmax [26]: 1.75e-05 µmol/min/mg
